Reference: paper PMC11586334, “Molecular hybridization modification improves the stability and immunomodulatory activity of TP5 peptide” (Frontiers in Immunology, 2024)
Ends that are not written are not given here.

Key:
[1] = system: RAW264.7 macrophages; format: cell-based, murine
Experimental: Murine macrophage cells (RAW264.7) were purchased from the Shanghai Cell Bank, the Institute of Cell Biology, China Academy of Sciences and cultured in Dulbecco’s modified Eagle’s medium (DMEM; HyClone, UT, USA). The DMEM medium was supplemented with 10% (v/v) fetal bovine serum (Bioscience) and 1% (v/v) penicillin/streptomycin (HyClone) and maintained at 37°C in a humidified atmosphere (5% CO2, 95% air).
RAW264.7 viability was measured using a Cell Counting Kit-8 (CCK-8) Assay Kit (Dojinbo, Japan). Cells were seeded in 96-well plates at a density of 2 × 10^4 cells/well and treated with or without YW12D, TP5 and YTP peptides (10–80 μg/mL). After incubation for 24 h, the cells were then incubated in CCK-8 reagent for 4 h at 37°C. The absorbance of each well was measured at 450 nm using a 96-well microplate reader. Cell viability was evaluated as follows:
(1) Cell viability (%)=(OD450 (sample)/OD450 (control))×100%

[2] = in vitro; format: in vitro ADME; settings: rat
Experimental: Rat plasma was collected by centrifuging whole blood from healthy adult rats. YW12D, TP5, and YTP (10 µg/mL) were incubated for different time at 37°C in rat plasma. The samples were collected into prechilled tubes containing 1 mL of acidic acetone (hydrochloric acid/acetone/H2O, 1:40:5) and centrifuged at 2, 000 × g for 20 min at 4°C. The obtained precipitates were dried in vacuum. Then, the dried precipitates were dissolved in 0.5 mL of 1 M acetic acid. The peptide analysis was conducted using HPLC. The half-lives of the peptides were calculated by a logarithm-linear regression analysis of the peptide concentrations.

[3] = molecular target: T1, recombinant TLR2 (Homo sapiens, UniProt O60603); assay: SPR binding of YTP to immobilized TLR2; settings: ProteOn XPR36, TLR2 immobilized by amino coupling, 25°C, PBS with 1% Tween 20, 1:1 model
T1 construct: purchased R&D Systems
Experimental: […] (SPR) experiments were conducted using a ProteOn XPR36 instrument (Bio-Rad, Hercules, CA, USA) with a ProteOn GLH sensor chip (Bio-Rad) at 25°C. The running buffer (PBS with 1% Tween 20) was continuously passed into the reaction chamber at 30 μL/min. The SPR sensing chip with recombinant TLR2 (R&D Systems) was immobilized by amino coupling to capture YTP. The binding affinity of YTP to TLR2 was examined using peptide concentrations of […]. The running buffer was injected into the empty channels as a reference. Sensor chip regeneration and desorption were achieved by injecting 10 mM Gly-HCl buffer (pH 2.5) before the next round of analyses. The experimental data were processed using ProteOn manager software (version 2.0). The binding curves were processed for the start injection alignment and baseline. The reference-subtracted sensorgram was then fitted to the curves labeling a homogeneous 1:1 model. Protein surface data were grouped to fit the association (Ka) and dissociation (Kd) rate constants. The symmetry dissociation constant (KD) for the peptide-[…] interaction was evaluated by using the following equation: […]

[4] = molecular target: recombinant TLR2 (Toll-like receptor 2) (UniProt O60603); assay: SPR; ProteOn XPR36, GLH sensor chip; recombinant TLR2 immobilised by amino coupling; YTP passed over at 0, 1.25, 2.5, 5 and 10 (μM in the results, mM in the methods); 25°C; running buffer PBS with 1% Tween 20, 30 μL/min; homogeneous 1:1 model
Chain of recombinant TLR2 (Toll-like receptor 2) (O60603 21-588): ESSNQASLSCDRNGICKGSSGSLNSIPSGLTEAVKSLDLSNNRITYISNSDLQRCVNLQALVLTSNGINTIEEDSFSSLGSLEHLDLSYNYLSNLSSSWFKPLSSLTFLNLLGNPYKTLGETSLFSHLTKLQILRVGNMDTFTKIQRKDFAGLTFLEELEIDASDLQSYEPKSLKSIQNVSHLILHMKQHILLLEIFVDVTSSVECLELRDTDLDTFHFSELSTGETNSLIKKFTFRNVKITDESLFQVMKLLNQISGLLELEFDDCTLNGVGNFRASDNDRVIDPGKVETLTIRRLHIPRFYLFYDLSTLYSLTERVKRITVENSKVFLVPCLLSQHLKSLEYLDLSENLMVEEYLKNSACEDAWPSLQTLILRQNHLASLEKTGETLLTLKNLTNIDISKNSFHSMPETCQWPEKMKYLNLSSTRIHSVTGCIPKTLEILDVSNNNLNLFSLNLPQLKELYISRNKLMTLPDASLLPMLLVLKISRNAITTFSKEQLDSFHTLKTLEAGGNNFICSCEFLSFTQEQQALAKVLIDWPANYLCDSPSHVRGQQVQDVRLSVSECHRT

T1 sequence (O60603 21-784, species assumed): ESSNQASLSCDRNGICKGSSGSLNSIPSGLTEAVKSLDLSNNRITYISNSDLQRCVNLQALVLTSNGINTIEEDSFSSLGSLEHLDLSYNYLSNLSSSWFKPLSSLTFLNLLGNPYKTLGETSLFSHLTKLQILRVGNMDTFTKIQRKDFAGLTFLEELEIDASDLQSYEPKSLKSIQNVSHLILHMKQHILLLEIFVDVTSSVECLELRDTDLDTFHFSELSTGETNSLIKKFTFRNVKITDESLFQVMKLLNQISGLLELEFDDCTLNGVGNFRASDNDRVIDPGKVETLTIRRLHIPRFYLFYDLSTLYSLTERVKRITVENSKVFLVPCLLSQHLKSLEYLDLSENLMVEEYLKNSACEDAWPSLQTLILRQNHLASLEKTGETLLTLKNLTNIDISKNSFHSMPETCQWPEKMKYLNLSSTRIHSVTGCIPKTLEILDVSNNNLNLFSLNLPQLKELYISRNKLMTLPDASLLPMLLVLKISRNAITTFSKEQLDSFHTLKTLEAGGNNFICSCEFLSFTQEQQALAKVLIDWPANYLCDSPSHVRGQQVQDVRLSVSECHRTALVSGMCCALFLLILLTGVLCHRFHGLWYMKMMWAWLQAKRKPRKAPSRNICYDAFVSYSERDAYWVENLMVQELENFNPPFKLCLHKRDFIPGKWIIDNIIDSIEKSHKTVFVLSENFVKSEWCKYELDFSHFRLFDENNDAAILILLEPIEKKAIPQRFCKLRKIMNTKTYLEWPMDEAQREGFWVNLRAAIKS

Row | half-life in plasma [2] | half-life at 10 µg/mL ([2]; plasma) | Ka (association rate constant) [3] | Kd (dissociation rate constant) [3] | Kd [4] | Molecule | cytotoxicity at high dose [1]
1 | more than 2 h | 2 h | 4.31e+06 M⁻¹ s⁻¹ | 0.0162 s⁻¹ | – | YVKLWRMIKFIRRKDVY [YTP] | no significant cytotoxicity
2 | – | – | – | – | 3.76 nM | YVKLWRMIKFIRRKDVY [hybrid peptide YW12D-TP5 (YTP)] | –
